Data from US9446039B2, “Aminoheteroaryl compounds as MTH1 inhibitors” (CEMM—FORSCHUNGSZENTRUM FÜR MOLEKULARE MEDIZIN GMBH, priority 2012, dated 2016).

Columns and labels:
Assay type in all cases: binding
[1] = target: SW480 colon carcinoma cells lysate proteins (Homo sapiens, UniProt P18085); conditions: PreyGene ARF4
[2] = target: SW480 colon carcinoma cells lysate proteins (Homo sapiens, UniProt P23528); conditions: PreyGene CFL1
[3] = target: SW480 colon carcinoma cells lysate proteins (Homo sapiens, UniProt P30086); conditions: PreyGene PEBP1
[4] = target: T1, SW480 colon carcinoma cells lysate proteins (Homo sapiens, UniProt P30101); conditions: PreyGene PDIA3
T1 sequence (P30101 25-505): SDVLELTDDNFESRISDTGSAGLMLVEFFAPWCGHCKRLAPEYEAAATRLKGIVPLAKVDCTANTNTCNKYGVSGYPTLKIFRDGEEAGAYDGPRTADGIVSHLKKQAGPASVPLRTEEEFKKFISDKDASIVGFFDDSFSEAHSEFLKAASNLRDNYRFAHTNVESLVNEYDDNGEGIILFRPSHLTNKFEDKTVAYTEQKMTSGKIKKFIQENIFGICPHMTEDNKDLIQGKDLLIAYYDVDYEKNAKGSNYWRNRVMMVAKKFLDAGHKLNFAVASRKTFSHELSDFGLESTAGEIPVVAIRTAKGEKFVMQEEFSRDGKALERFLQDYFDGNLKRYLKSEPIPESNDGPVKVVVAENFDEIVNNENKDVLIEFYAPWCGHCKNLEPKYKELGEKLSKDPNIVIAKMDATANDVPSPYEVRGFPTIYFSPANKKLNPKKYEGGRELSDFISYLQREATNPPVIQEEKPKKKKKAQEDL

[5] = target: T2, SW480 colon carcinoma cells lysate proteins (Homo sapiens, UniProt P50395); conditions: PreyGene GDI2
T2 sequence (P50395 1-445): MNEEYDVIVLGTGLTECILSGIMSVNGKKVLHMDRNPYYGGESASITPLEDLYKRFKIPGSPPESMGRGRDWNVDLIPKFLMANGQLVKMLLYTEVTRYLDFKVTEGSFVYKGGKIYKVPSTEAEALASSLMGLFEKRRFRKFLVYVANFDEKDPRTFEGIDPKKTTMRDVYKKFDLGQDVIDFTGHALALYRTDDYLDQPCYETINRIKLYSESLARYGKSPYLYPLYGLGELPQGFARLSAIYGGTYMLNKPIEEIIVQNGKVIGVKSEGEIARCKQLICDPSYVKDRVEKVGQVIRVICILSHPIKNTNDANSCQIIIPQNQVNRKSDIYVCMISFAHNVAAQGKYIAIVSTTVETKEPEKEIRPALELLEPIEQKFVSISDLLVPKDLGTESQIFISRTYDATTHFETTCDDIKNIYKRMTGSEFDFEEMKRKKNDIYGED

[6] = target: SW480 colon carcinoma cells lysate proteins (Homo sapiens, UniProt P53999); conditions: PreyGene SUB1
[7] = target: T3, SW480 colon carcinoma cells lysate proteins (Homo sapiens, UniProt P61916); conditions: PreyGene NPC2
T3 sequence (P61916 20-151): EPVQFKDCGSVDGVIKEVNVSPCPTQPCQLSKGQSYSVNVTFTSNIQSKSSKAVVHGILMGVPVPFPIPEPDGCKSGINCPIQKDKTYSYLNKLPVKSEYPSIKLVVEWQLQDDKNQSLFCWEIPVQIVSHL

[8] = target: SW480 colon carcinoma cells lysate proteins (Homo sapiens, UniProt P62942); conditions: PreyGene FKBP1A; SW480 cells
[9] = target: T4, SW480 colon carcinoma cells lysate proteins (Homo sapiens, UniProt Q13126); conditions: PreyGene MTAP; SW480 cells
T4 sequence (Q13126 1-283): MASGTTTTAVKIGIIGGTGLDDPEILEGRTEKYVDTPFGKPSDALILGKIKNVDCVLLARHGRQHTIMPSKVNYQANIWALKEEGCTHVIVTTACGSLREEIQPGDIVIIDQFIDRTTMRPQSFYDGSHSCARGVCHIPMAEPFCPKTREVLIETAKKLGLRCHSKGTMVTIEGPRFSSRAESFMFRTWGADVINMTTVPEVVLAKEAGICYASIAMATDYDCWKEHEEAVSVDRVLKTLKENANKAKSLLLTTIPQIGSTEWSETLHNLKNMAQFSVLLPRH

Chain of SW480 colon carcinoma cells lysate proteins (Homo sapiens, UniProt P30086) (P30086 whole entry): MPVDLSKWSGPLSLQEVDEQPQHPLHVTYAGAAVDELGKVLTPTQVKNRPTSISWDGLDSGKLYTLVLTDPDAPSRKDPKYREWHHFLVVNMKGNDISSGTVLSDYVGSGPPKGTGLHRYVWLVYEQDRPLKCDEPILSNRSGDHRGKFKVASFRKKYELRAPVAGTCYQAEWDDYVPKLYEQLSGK
Chain of SW480 colon carcinoma cells lysate proteins (Homo sapiens, UniProt P18085) (P18085 whole entry): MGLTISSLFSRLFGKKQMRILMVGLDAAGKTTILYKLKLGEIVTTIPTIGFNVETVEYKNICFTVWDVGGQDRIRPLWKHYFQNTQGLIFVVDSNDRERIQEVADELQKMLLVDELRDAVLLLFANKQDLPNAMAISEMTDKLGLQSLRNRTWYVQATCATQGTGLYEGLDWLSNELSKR
Chain of SW480 colon carcinoma cells lysate proteins (Homo sapiens, UniProt P23528) (P23528 whole entry): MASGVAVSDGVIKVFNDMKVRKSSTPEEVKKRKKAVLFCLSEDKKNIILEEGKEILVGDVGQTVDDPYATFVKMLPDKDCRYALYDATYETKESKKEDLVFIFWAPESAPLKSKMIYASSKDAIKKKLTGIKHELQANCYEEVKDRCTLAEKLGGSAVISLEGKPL
Chain of SW480 colon carcinoma cells lysate proteins (Homo sapiens, UniProt P62942) (P62942 whole entry): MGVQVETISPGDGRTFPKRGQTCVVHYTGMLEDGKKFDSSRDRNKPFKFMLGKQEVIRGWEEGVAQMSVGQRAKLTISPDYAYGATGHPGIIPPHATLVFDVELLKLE

SMILES: C[C@H](Oc1cc(-c2cnn(C3CCNCC3)c2)cnc1N)c1c(Cl)ccc(F)c1Cl [(5)-crizotinib]
- AvgP [1]: 0.352
- SC.Exp. 1-1 [1]: 3
- SC.Exp. 1-2 [1]: 3
- SC.Exp. 2-1 [1]: 0
- SC.Exp. 2-2 [1]: 0
- Sum (SC.Exp.) [1]: 6
- AvgP [2]: 0.3871
- SC.Exp. 1-1 [2]: 12
- SC.Exp. 1-2 [2]: 11
- SC.Exp. 2-1 [2]: 1
- SC.Exp. 2-2 [2]: 0
- Sum (SC.Exp.) [2]: 24
- AvgP [3]: 0.3266
- SC.Exp. 1-1 [3]: 3
- SC.Exp. 1-2 [3]: 3
- SC.Exp. 2-1 [3]: 0
- SC.Exp. 2-2 [3]: 0
- Sum (SC.Exp.) [3]: 6
- AvgP [4]: 0.4952
- SC.Exp. 1-1 [4]: 8
- SC.Exp. 1-2 [4]: 7
- SC.Exp. 2-1 [4]: 0
- SC.Exp. 2-2 [4]: 0
- Sum (SC.Exp.) [4]: 15
- AvgP [5]: 0.1854
- SC.Exp. 1-1 [5]: 4
- SC.Exp. 1-2 [5]: 0
- SC.Exp. 2-1 [5]: 0
- SC.Exp. 2-2 [5]: 0
- Sum (SC.Exp.) [5]: 4
- AvgP [6]: 0.206
- SC.Exp. 1-1 [6]: 5
- SC.Exp. 1-2 [6]: 5
- SC.Exp. 2-1 [6]: 2
- SC.Exp. 2-2 [6]: 4
- Sum (SC.Exp.) [6]: 16
- AvgP [7]: 0.3813
- SC.Exp. 1-1 [7]: 2
- SC.Exp. 1-2 [7]: 2
- SC.Exp. 2-1 [7]: 0
- SC.Exp. 2-2 [7]: 0
- Sum (SC.Exp.) [7]: 4
- AvgP [8]: 0
- SC.Exp. 1-1 [8]: 1
- SC.Exp. 1-2 [8]: 1
- SC.Exp. 2-1 [8]: 1
- SC.Exp. 2-2 [8]: 0
- SC.Exp. Sum [8]: 3
- AvgP [9]: 0
- SC.Exp. 1-1 [9]: 1
- SC.Exp. 1-2 [9]: 1
- SC.Exp. 2-1 [9]: 0
- SC.Exp. 2-2 [9]: 0
- SC.Exp. Sum [9]: 2
